Test results taken from US7179814B2, “Agents for controlling plant pests” (priority 1998, dated 2007).
Like-named read-outs stand apart in the source and are kept apart here.

Tests used:
Fusarium culmorum = Fusarium culmorum test (wheat)/seed treatment; assay type: in vivo; settings: 75 g/ha, dry seed dressing, approximately 3 weeks after sowing
Description: The active compounds are applied as a dry dressing. They are prepared by extending the active compound in question with ground minerals to give a finely pulverulent mixture which ensures even distribution on the surface of the seeds.
For the dressing, the infected seeds are shaken with the dressing in a closed glass bottle for 3 minutes.
2×100 seeds of the wheat are sown at a depth of 1 cm into standard soil, and the wheat is cultivated in a greenhouse at a temperature of approximately 18° C. and at a relative atmospheric humidity of approximately 95% in seed containers receiving 15 hours of light per day.
The evaluation of the plants for symptoms is carried out approximately 3 weeks after sowding. 0% means an efficacy which corresponds to that of the control, whereas an efficacy of 100% means that no infection is observed.

[1] = test system: green rice leaf hopper (Nephotettix cincticeps); assay: Nephotettix test (rice seedling dip); assay type: in vivo
Description: (§1) To produce a suitable preparation of active compound, 1 part by weight of an active compound or an active compound combination is mixed with the stated amounts of solvent and emulsifier, and the concentrate is diluted with water to the desired concentration.
Rice seedlings (Oryza sativa) are treated by being dipped into the active compound preparation of the desired concentration and are populated with the green rice leaf hopper (Nephotettix cincticeps) while the leaves are still moist.
After the desired period of time, the kill in % is determined. 100% means that all the leaf hoppers have been killed; 0% means that none of the leaf hoppers have been killed.

Botrytis cinerea = assay: Botrytis test (bean)/protective; assay type: in vivo; settings: 10 g/ha, single active compound, 2 days after inoculation
Description: as §1, with “of” for “of an”, “or” for “or an”, “desired concentration, or a commercial formulation of active compound or active compound combination is diluted with water to the desired” for “desired”
To test for protective activity, young plants are sprayed with the active compound preparation at the stated application rate. After the spray coating has dried on, 2 small pieces of agar colonized by Botrytis cinerea are placed onto each leaf. The inoculated plants are placed in a dark chamber at approximately 20° C. and 100% relative atmospheric humidity.
2 days after the inoculation, the size of the disease spots on the leaves is evaluated. 0% means an efficacy which corresponds to that of the control, whereas an efficacy of 100% means that no infection is observed.

[2] = test system: Diabrotica balteata larvae in soil; assay: Critical concentration test/soil insects, Diabrotica balteata; assay type: in vivo; settings: 20.0 ppm in soil, 7 days after infestation; for pest or weed control at 20 ppm: Diabrotica balteata, 168 h, read-out: Kill in %
Description: (§2) To produce a suitable preparation of active compound, 1 part by weight of the active compound or the active compound mixture is mixed with the stated amounts of solvent and emulsifier, and the concentrate is diluted with water to the desired concentration.
(§3) The active compound preparation is mixed intimately with soil. Here, the concentration of the active compound in the preparation is almost irrelevant; only the amount by weight of active compound or active compound mixture per volume unit of soil, which is stated in ppm (mg/l), matters.
Soil is filled into 0.5 l pots and these are allowed to stand at 20° C. Immediately after preparation, 5 pre-germinated maize corns are placed into each pot. After 2 days, the test insects are placed into the treated soil. After a further 7 days, the kill in % is determined. 100% means that all test insects have been killed; 0% means that none of the test insects have been killed.

[3] = test system: Erysiphe graminis f.sp. hordei; assay: Erysiphe test (barley)/protective; assay type: in vivo; settings: 62.5 g/ha, single active compound, 7 days after inoculation
Description: as §1, with “of” for “of an”, “or” for “or an”, “desired concentration, or a commercial formulation of active compound or active compound combination is diluted with water to the desired” for “desired”
(§4) To test for protective activity, young plants are sprayed with the preparation of active compound at the stated application rate.
After the spray coating has dried on, the plants are dusted with spores of Erysiphe graminis f.sp. hordei.
(§5) The plants are placed in a greenhouse at a temperature of approximately 20° C. and a relative atmospheric humidity of approximately 80% to promote the development of mildew pustules.
(§6) Evaluation is carried out 7 days after the inoculation. 0% means an efficacy which corresponds to that of the control, whereas an efficacy of 100% means that no infection is observed.

[4] = test system: Erysiphe graminis f.sp. tritici; assay: Erysiphe test (wheat)/protective; assay type: in vivo; settings: single active compound
Description: as §1, with “of” for “of an”, “or” for “or an”, “desired concentration, or a commercial formulation of active compound or active compound combination is diluted with water to the desired” for “desired”
as §4
After the spray coating has dried on, the plants are dusted with spores of Erysiphe graminis f.sp. tritici.
as §5, §6

[5] = test system: larvae of the mustard beetle (Phaedon cochleariae); assay: Phaedon larvae test (cabbage leaf dip); assay type: in vivo; settings: concentration 0.1 %
Description: as §1
Cabbage leaves (Brassica oleracea) are treated by being dipped into the preparation of active compound of the desired concentration and are populated with larvae of the mustard beetle (Phaedon cochleariae) while the leaves are still moist.
After the desired period of time, the kill in % is determined. 100% means that all beetle larvae have been killed; 0% means that none of the beetle larvae have been killed.

green peach aphid = assay: Myzus test (cabbage leaf dip); assay type: in vivo, Myzus (green peach aphid); settings: concentration 0.1 %
Description: as §1
Cabbage leaves (Brassica oleracea) which are heavily infested by the green peach aphid are treated by being dipped into the active compound preparation of the desired concentration.
After the desired period of time, the kill in % is determined. 100% means that all aphids have been killed; 0% means that none of the aphids have been killed.

[6] = test system: Phaedon cochleariae larvae; assay: Critical concentration test/root-systemic action, Phaedon cochleariae; assay type: in vivo; settings: 72 h, 20.00 ppm in soil, root-systemic, 3 days after infestation, read-out: Kill in %
Description: as §2, §3
Soil is filled into 250 ml pots and these are planted with cabbage (Brassica oleracea). The active compound or the active compound combination can thus be taken up by the plant roots from the soil and transported into the leaves.
After 7 days, the leaves are populated with the abovementioned test animals. After a further 3 days, the kill in % is determined. 100% means that all test insects have been killed; 0% means that the number of insects which are still alive is the same as in the untreated control.

Spodoptera frugiperda = assay: Critical concentration test/soil insects, Spodoptera frugiperda; assay type: in vivo; settings: 120 h, 20.00 ppm in soil, 5 days after infestation, read-out: Kill in %
Description: as §2, §3
Soil is filled into 0.5 l pots and these are allowed to stand at 20° C. Immediately after preparation, 3 pre-germinated maize corns are placed into each pot. After the maize corns have emerged, boring sleeves are placed onto the pots. 9 days after preparation, the maize is populated with the test insects. After a further 5 days, the kill in % is determined. 100% means that all test insects have been killed; 0% means that the number of insects which are still alive is the same as for the untreated control.

[7] = test system: caterpillars of the diamondback moth (Plutella xylostella); assay: Plutella test (cabbage leaf dip); assay type: in vivo
Description: as §1
Cabbage leaves (Brassica oleracea) are treated by being dipped into the preparation of active compound of the desired concentration and are populated with caterpillars of the diamondback moth (Plutella xylostella) while the leaves are still moist.
After the desired period of time, the kill in % is determined 100% means that all caterpillars have been killed; 0% means that none of the caterpillars have been killed.

Phytophthora infestans = assay type: in vivo; settings: single active compound
Puccinia recondita = assay: Puccinia test (wheat)/protective; assay type: in vivo; settings: 62.5 g/ha, 10 days after inoculation
Description: as §1, with “of” for “of an”, “or” for “or an”, “desired concentration, or a commercial formulation of active compound or active compound combination is diluted with water to the desired” for “desired”
(§7) To test for protective activity, young plants are sprayed with the active compound preparation at the stated application rate. After the spray coating has dried on, the plants are sprayed with a conidia suspension of Puccinia recondita. The plants remain in an incubation cabin at 20° C. and 100% relative atmospheric humidity for 48 hours.
The plants are then placed in a greenhouse at a temperature of approximately 20° C. and a relative atmospheric humidity of 80% to promote the development of rust pustules.
Evaluation is carried out 10 days after the inoculation. 0% means an efficacy which corresponds to that of the control, whereas an efficacy of 100% means that no infection is observed.

Pyrenophora teres = Pyrenophora teres test (barley)/protective; assay type: in vivo; settings: single active compound
Description: as §1, with “of” for “of an”, “or” for “or an”, “desired concentration, or a commercial formulation of active compound or active compound combination is diluted with water to the desired” for “desired”
as §7, with “Pyrenophora teres.” for “Puccinia recondita.”
The plants are then placed in a greenhouse at a temperature of approximately 20° C. and a relative atmospheric humidity of approximately 80%.
as §6

[8] = test system: Heliothis virescens caterpillars; assay: Heliothis virescens test (soya bean shoot dip); assay type: in vivo; settings: concentration 0.02 %
Description: as §1
Soya bean shoots (Glycine max) are treated by being dipped into the active compound preparation of the desired concentration and are populated with Heliothis virescens caterpillars while the leaves are still moist.
After the desired period of time, the kill in % is determined. 100% means that all caterpillars have been killed; 0% means that none of the caterpillars have been killed.

[9] = 62.5 g/ha, 7 days after inoculation

## N#Cc1c[nH]cc1-c1cccc2c1OC(F)(F)O2 [fludioxonil]
Fusarium culmorum
  Efficacy in %: 0%
[1]; concentration 0.02 %
  Kill in %: 0%
Botrytis cinerea
  Efficacy in %: 40%
[2]
  pest or weed control at 20 ppm: 0%

## CO/N=C(/C(=O)OC)c1ccccc1COc1ccccc1C [kresoxim-methyl]
[3]
  Efficacy in % calculated/found: 0%
[4]; 18.75 g/ha
  Efficacy in % calculated/found: 43%
[4]; [9]
  Efficacy in % calculated/found: 79%
[2]
  pest or weed control at 20 ppm: 0%
[5]
  Kill in %: 0%

## COCC(=O)N(c1c(C)cccc1C)C(C)C(=O)OC (centres unmarked) [metalaxyl]
Green peach aphid
  Kill in %: 0%
[1]; concentration 0.1 %
  Kill in %: 0%
[2]
  pest or weed control at 20 ppm: 0%
[6]
  pest or weed control at 20 ppm: 0%
Spodoptera frugiperda
  pest or weed control at 20 ppm: 0%

## O=C(Nc1ccccc1)N(Cc1ccc(Cl)cc1)C1CCCC1 [pencycuron]
Green peach aphid
  Kill in %: 0%
[1]; concentration 0.1 %
  Kill in %: 0%
[7]; concentration 0.1 %
  Kill in %: 0%
[2]
  pest or weed control at 20 ppm: 0%

## CCCC1COC(Cn2cncn2)(c2ccc(Cl)cc2Cl)O1 (centres unmarked) [propiconazole]
Phytophthora infestans; 500 g/ha, 3 days after inoculation
  Efficacy in %: 5%
Puccinia recondita
  Efficacy in %: 75%
[1]; concentration 0.004 %
  Kill in %: 0%
Pyrenophora teres; [9]
  Efficacy in % calculated/found: 0%
[2]
  pest or weed control at 20 ppm: 0%
[6]
  pest or weed control at 20 ppm: 0%
Spodoptera frugiperda
  pest or weed control at 20 ppm: 0%

## CC(C)(C)C(O)(CCc1ccc(Cl)cc1)Cn1cncn1 (centres unmarked) [tebuconazole]
Pyrenophora teres; [9]
  Efficacy in % calculated/found: 50%
[2]
  pest or weed control at 20 ppm: 0%
[6]
  pest or weed control at 20 ppm: 0%
Spodoptera frugiperda
  pest or weed control at 20 ppm: 0%

## CC(C)(C)C(O)C(Oc1ccc(Cl)cc1)n1cncn1 (centres unmarked) [triadimenol]
Pyrenophora teres; 18.75 g/ha
  Efficacy in % calculated/found: 40%
[2]
  pest or weed control at 20 ppm: 0%
[6]
  pest or weed control at 20 ppm: 0%
Spodoptera frugiperda
  pest or weed control at 20 ppm: 0%

## tolylfluanid
Phytophthora infestans; 50 g/ha
  Efficacy in %: 34%
[1]; concentration 0.02 %
  Kill in %: 0%
[7]; concentration 0.02 %
  Kill in %: 0%
[8]
  Kill in %: 0%
[2]
  Kill in %: 0%
